Test systems include A498 renal; ACHN renal; HOP-62 NSCLC; K-562 leukemia; MDA-MB-435; NCI-H226 lung; NCI-H460 lung; SF-268 CNS; SK-MEL-28 melanoma; T-47D breast.
What all share (assay): NCI-60 cell line screen, 48 h

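Growth conditions: 96-well plates. Treatment: test compound, 48 hours, 5 concentrations. Analysis: linear interpolation between bracketing concentrations; unreached endpoints set to highest concentration. At the GI50, growth is halved. The concentration for full growth arrest is given as TGI.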

On to `O=C(Nc1cccc(-n2cc(-c3ccncc3)c(-c3ccc(O)c(Cl)c3)n2)c1)Nc1cccc(C(F)(F)F)c1`, for which the GI50 in the experiment with A498 renal was 1.9 µM; in the experiment on ACHN renal it was 2.51 µM; with HOP-62 NSCLC, 2.75 µM; in the experiment on K-562 leukemia, 2.69 µM; in the experiment on MDA-MB-435, 1.82 µM; in the experiment on NCI-H226 lung, 2.52 µM. Further, the GI50 is 2.64 µM in the experiment with NCI-H460 lung, 2.59 µM in the experiment on SF-268 CNS, 1.95 µM with SK-MEL-28 melanoma and 1.97 µM with T-47D breast. Moreover, the TGI in the experiment with A498 renal was 8.99 µM; with ACHN renal, 8.4 µM; with HOP-62 NSCLC, 8.36 µM; in the experiment with K-562 leukemia, > 100 µM; with MDA-MB-435, 4.65 µM; in the experiment on NCI-H226 lung, 9.02 µM. Moreover, the TGI was determined as 9.98 µM in the experiment on SF-268 CNS, 6.18 µM with SK-MEL-28 melanoma and 7.3 µM in the experiment on T-47D breast.

As for `COc1ccc2c(c1)C1(C(=O)N2)C(C#N)=C(c2ccccc2)Nc2c1c(-c1ccccc1)nn2-c1ccccc1` (centres undefined), the GI50 with A498 renal was 1.61 µM; in the experiment with ACHN renal it was 6.16 µM; with HOP-62 NSCLC it was 2.28 µM; in the experiment on K-562 leukemia, 4.6 µM; in the experiment with MDA-MB-435 it was 2.16 µM; in the experiment on NCI-H226 lung, 3.8 µM. The GI50 in the experiment on NCI-H460 lung is 1.98 µM; in the experiment with SF-268 CNS it was 4.9 µM; in the experiment on SK-MEL-28 melanoma, 2.21 µM; in the experiment on T-47D breast it was 2.94 µM. Moreover, the TGI with A498 renal amounted to 4.35 µM; in the experiment with ACHN renal, 19.4 µM; with HOP-62 NSCLC it was 7.07 µM; in the experiment on K-562 leukemia, 22.9 µM; with MDA-MB-435 it was 5.29 µM; with NCI-H226 lung it was 16.4 µM. Also, the TGI stood at 3.75 µM in the experiment with NCI-H460 lung, 17.9 µM with SF-268 CNS, 5.4 µM in the experiment with SK-MEL-28 melanoma and 12.5 µM in the experiment with T-47D breast.

The record behind these values is PubChem BioAssay (NCI).
